US7371396B2, “Dermatological and cosmetic compositions” (Relivia SRL, priority 2001, dated 2008)

Legend:
[1] = Nomeir et al., Drug Metab Dispos 20(2):198-204, 1992; cited from earlier work
[2] = system: patients suffering from severe disabling atopic dermatitis (AD); assay: Test in vivo with atopic dermatitis subjects (SCORAD system); design: species or system human
Experimental: Experiments were carried out on patients (n=20) of both sexes, of age above 18 years, suffering from severe disabling atopic dermatitis (AD) unresponsive to the current topical treatments.
All patients were subjected to complete blood count and measurements of renal and hepatic functions prior to treatment. Patients who had been systemically treated two months previously with corticoids, antibiotics, psoralenes and other immunosuppressants or with UV were excluded. Patients were supposed not to use any corticoid topically.
Material—A commercially available formulation Triderm Lenil (ICIM International srl, Gallarate, Italy) was used as such (formulation I) or with the addition of 1×10^−2 mol (0.33 g) of Furfuryl palmitate (formulation II).
Triderm Lenil ingredients: aqua, petrolatum, paraffinnum liquidum, dimethicone, laureth-9, C12-C15 alkyl benzoate, soy sterol, phenyl trimethicone, cetearyl alcohol, ribes nigrum, bisabolol, tocopheryl acetate, dimethicone copolyol, capryloyl glycine, glycyrrhetinc acid, superoxide dismutase, phytosphingosine, polyquaternium-7, sodium carbomer, hydroxypropyl guar, disodium EDTA, farnesol, sodium chloride.
Treatment—Out of 20 patients, 10 were included in the furfuryl palmitate-treated group […] and 10 in the control group (formulation I). […] Patients were divided in two groups and treated twice a day for one months either with the Furfuryl palmitate-containing cream or with the placebo cream (control group). Evaluations—The progress of the disease was monitored with the SCORAD system (Dermatology 1993; 186: 23-31) drafted by European Task Force on Atopic Dermatitis (European Society of Pediatric Dermatology, Bordeaux, September 1990) with further modification by Hanifin and Rajka, thus by monitoring 3 criteria: • A) Lesione spread: analysis of surface involvement was performed during the clinical examination by drawing the involved areas on the evaluation sheet, then calculate the proportion of involved surface area segment by segment. For example, if ¾th of the right lower limb is interested by AD, the corresponding score is of about 7/9. • B) Grading of intensity: carried out in a chosen representative area in patients with localized lesions. In patients with areas varying in severity, a representative area of mean involvement is chosen. Dryness should be evaluated in a remote area of non-inflammatory skin. The elementary lesions were classified in the following manifestation: a) Erythema b) Edema/papulation c) Oozing/crusting d) Excoriation e) Lichenification, wherein each item is scored on a scale of 0 to 3, with the total for the intensity criteria is based on a maximum of 18 • C) Subjective signs: by looking at the two most representative items concerning the quality of life of patients during the 3 previous days, i.e. pruritus and insomnia. The patient and/or one of their relatives expresses the intensity of pruritus or insomnia using a visual analog scale graded between 0 and 10.
At the beginning of the treatment, the body area affected by eczema was 69% on the average in all patients. […] At the end of the treatment, the mean scores for itching decreased from 2.3 to 0.6 and for sleep disorders from 7.9 to 1.0. only in the furfuryl palmitate-treated patients.

[3] = at the end of the treatment, 10 patients in the treated group

melting point | Compound | toxicity compared with furfuryl alcohol [1] | mean of the values concerning the different clinical symptoms (SCORAD) ([2]; after the first two weeks of treatment, cream with furfuryl palmitate (formulation II) twice a day, decreased from 57.0 (SEM 1.6 n=10) at start) | mean score for itching ([2]; at the end of the treatment (one month, twice a day), decreased from 2.3) | mean score for sleep disorders ([2]; at the end of the treatment (one month, twice a day), decreased from 7.9) | number of treated patients with significant improvements of all the considered parameters [2, 3] | treated patients with improvement limited to skin scaling [2, 3] | body area affected by eczema ([2]; reached during treatment, twice a day for one month, 69% on the average in all patients at the beginning)
– | O=Cc1ccco1 [furfural] | at least twice as toxic as the furfuryl alcohol | – | – | – | – | – | –
31 to 33 °C | CCCCCCCCCCCCCCCC(=O)OCc1ccco1 [furfuryl palmitate, Furfuryl Palmitate] | – | 21.5 | 0.6 | 1.0 | 8 | two of them only showed improvements concerning skin scaling | 27%
